The text below walks through data of US20230303512A1, “MODULATORS OF MYB-MEDIATED TRANSCRIPTION AND USES THEREOF” (Massachusetts Institute of Technology, priority 2020, published 2023).

Assay type in all cases: cell-based
In one test the test system is Jurkat. Put plainly: Cell Titer Glo viability assay, Jurkat. The conditions noted are these: Homo sapiens, read-out: IC50 Cell Titer Glow Viability Jurkat.
The next test relates to endogenous MYB. Put plainly: 5×MRE-luciferase reporter assay in Jurkat cells. The note with it: Homo sapiens, 5×MRE firefly luciferase, 18 hours, normalized to DMSO. The protocol:
(§1) An assay using a 5×Myb-response element (MRE)-luciferase construct was used to evaluate the compounds' ability to bind MYB and/or disrupt the MYB-NFIB interaction. The 5×MRE reporter was conducted in both HEK293T cells and Jurkat cells, and for the HEK293T system a transient transfection of plasmid vectors expressing either MYB or MYB-NFIB, and a plasmid containing the 5×MRE promoter sequence cloned upstream of Firefly luciferase were used. For the Jurkat system, the reporter was driven by endogenous MYB, and the 5×MRE construct was transiently transfected. Cells were treated with two different high concentrations of each compound (10 and 20 µM) and the luciferase activity was measured 18 hours post-treatment. Individual wells were normalized for viability (cell count) using the Cyto-tox One assay (Promega).
Jurkat cells were reverse transfected at a density of 40,000 cells/well at the time of plating with a plasmid encoding 5×MRE reporter construct driving firefly luciferase expression. 4 hours following transfection, the compound analogs were added using a Tecan transfer tool to the wells. The plate was incubated for 18 hours, and then firefly luciferase signal was measured using promega Steady-glo luciferase assay system according to the manufacturer's protocols. The signal was normalized to control wells which were treated with DMSO vehicle.
On the technique in general: A reporter such as luciferase makes a cellular process visible.

The next test relates to c-Myb. Put plainly: 5×MRE-luciferase reporter assay in HEK293T cells. The conditions noted are these: Homo sapiens, HEK-293T; c-Myb plus 5×MRE firefly luciferase transfected, 18 hours, normalized to DMSO. The protocol: as §1
HEK293T cells were plated at a density of 7500 cells/well in a 384-well plate. The following day, the cells were transfected with plasmids encoding 1)c-Myb under control of a CMV promoter, 2) 5×MRE reporter construct driving firefly luciferase expression in a 1:2 ratio. 4 hours following transfection, compound analogs were added using a Tecan transfer tool to the wells. The plate was incubated for 18 hours, and then firefly luciferase signal measured using promega Dual-Glo luciferase assay system according to the manufacturer's protocols. The signal was normalized to control wells which were treated with DMSO vehicle.

Usually IC50 stands for the concentration that inhibits the measured activity by half. On to `Cc1cc(N2CCC(NCc3ccccc3)CC2)nc(N)n1`, for which the IC50 in the test with Jurkat was greater than 30 µM; in the test on endogenous MYB, 25.7 µM; in the test on c-Myb, greater than 40 µM.

For the molecule `Cc1cc(N2CCC(NCc3cccc(-n4cccn4)c3)CC2)nc(N)n1`, the IC50 with Jurkat was greater than 30 µM; with endogenous MYB it was 30.6 µM; in the test on c-Myb it was greater than 40 µM.

With `Cc1cc(N2CCC(NCc3cccc(N4CCCC4)c3)CC2)nc(N)n1` [drawing 228], the figures for the IC50 with Jurkat, with endogenous MYB and in the test on c-Myb were 3.24 µM, 3.49 µM and 15.9 µM, respectively.

In the case of `Cc1cc(N2CCC(N(Cc3cccc(N4CCCC4)c3)C(=O)NC(C)C)CC2)nc(N)n1` [drawing 230], the IC50 was greater than 30 µM in the test with Jurkat and 26.4 µM in the test with endogenous MYB.

Turning to `CC(=O)N(Cc1cccc(N2CCCC2)c1)C1CCN(c2cc(C)nc(N)n2)CC1` [drawing 231], the IC50 was greater than 30 µM in the test with Jurkat and 11 µM in the test with endogenous MYB.

As for `Cc1cc(N2CCC(NCc3ccccc3N3CCCC3)CC2)nc(N)n1` [drawing 232], the results for the IC50 with Jurkat, with endogenous MYB and in the test on c-Myb were greater than 30 µM, 3.09 µM and greater than 40 µM, respectively.

Turning to `Cc1cc(N2CCC(NCc3ccc(N4CCCC4)cc3)CC2)nc(N)n1` [drawing 233], the IC50 in the test with Jurkat was greater than 30 µM; with endogenous MYB it was 17.3 µM; with c-Myb it was greater than 40 µM.

As for `Cc1cc(N2CCC(NC(=O)c3cccc(N4CCCC4)c3)CC2)nc(N)n1` [drawing 234], the IC50 is greater than 30 µM in the test on Jurkat, 11.1 µM in the test with endogenous MYB and greater than 40 µM in the test on c-Myb.

Regarding `Cc1cc(N2CCC(NCc3cccc(N4CCCCC4)c3)CC2)nc(N)n1` [drawing 235], the IC50 in the test on Jurkat was determined as 11.2 µM; in the test on endogenous MYB, 4.18 µM; with c-Myb it was 25.2 µM.

As to `Cc1cc(N2CCC(NCc3cccc(-n4cccc4)c3)CC2)nc(N)n1` [drawing 236], the IC50 with Jurkat stood at 21.6 µM; in the test with endogenous MYB it was 12.1 µM; in the test on c-Myb, 14.8 µM.

Regarding `Cc1cc(N2CCC(NCc3cccc(N(C)C)c3)CC2)nc(N)n1` [drawing 237], the IC50 in the test with Jurkat is greater than 30 µM; with endogenous MYB it was greater than 40 µM; in the test on c-Myb, greater than 40 µM.

On to `COc1cccc(CNC2CCN(c3cc(C)nc(N)n3)CC2)c1` [drawing 238], for which the IC50 in the test on Jurkat is greater than 30 µM; in the test with endogenous MYB it was 30.1 µM; in the test on c-Myb, greater than 40 µM.

For the molecule `Cc1cc(N2CCC(NCc3cccc(-n4ccnc4)c3)CC2)nc(N)n1` [drawing 240], the values for the IC50 in the test with Jurkat, in the test on endogenous MYB and in the test with c-Myb were greater than 30 µM, 25.7 µM and greater than 40 µM, respectively.

For `Cc1cc(N2CCC[C@@H](NCc3cccc(N4CCCC4)c3)C2)nc(N)n1` [drawing 241], the IC50 came out at 4.41 µM with Jurkat and 2.25 µM in the test with endogenous MYB.

As to `Cc1cc(N2CCC[C@H](NCc3cccc(N4CCCC4)c3)C2)nc(N)n1` [drawing 242], the values for the IC50 with Jurkat and in the test with endogenous MYB were 19.7 µM and 8.08 µM, respectively.

In the case of `Cc1cc(NCCCNCc2cccc(N3CCCC3)c2)nc(N)n1` [drawing 243], the results for the IC50 in the test with Jurkat and with endogenous MYB were greater than 30 µM and 8.55 µM, respectively.

`Cc1cc(N2CCC(NCc3cccc(N4CCCC4)c3)CC2)ncn1` [drawing 244]: the IC50 in the test on c-Myb is greater than 30 µM.

Turning to `Cc1cc(N2CCC(NCc3cccc(C(C)(C)C)c3)CC2)nc(N)n1` [drawing 245], the IC50 in the test with c-Myb was greater than 30 µM.

`CCN(CC)c1ccc(CNC2CCN(c3cc(C)nc(N)n3)CC2)cc1` [drawing 246]: the half-inhibitory concentration (IC50) in the test on c-Myb was greater than 30 µM.
